# PubChem BioAssay (NCI)
#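 Results reflect a 48-hour exposure of cells in 96-well plates to compound at five concentrations. TGI: concentration producing complete growth inhibition.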
# System: HCT-15 colon
# Assay: DTP human tumour cell line panel, 48 h
row,Compound,TGI
1,C1=CC(N(c2ccccc2)C2C=CCCC2)CCC1 (stereo not drawn),> 100 µM

# System: HL-60(TB) leukemia
# Assay: DTP human tumour cell line panel, 48 h
row,Compound,TGI
1,CCN1CCC(O)(c2ccc(OC)cc2)C(C(=O)c2ccc(OC)cc2)C1 (stereo not drawn),46.9 µM
2,CC1CN(C(=O)CN2CCC(CCCCN(C)C)CC2)c2ccccc2NC1=O (stereo not drawn),> 100 µM
3,C1=CC(N(c2ccccc2)C2C=CCCC2)CCC1 (stereo not drawn),> 100 µM
4,[N-]=[N+]=N[C@H]1C[C@@H](CO)O[C@H]1n1cnc2c(N)ncnc21,> 100 µM

# System: HOP-18 NSCLC
# Assay: DTP human tumour cell line panel, 48 h
row,Compound,TGI
1,CC12CP(=O)(c3ccccc3)CC1C2(Cl)Cl (stereo not drawn),> 100 µM
2,CC1CN(C(=O)CN2CCC(CCCCN(C)C)CC2)c2ccccc2NC1=O (stereo not drawn),> 100 µM
3,C1=CC(N(c2ccccc2)C2C=CCCC2)CCC1 (stereo not drawn),> 100 µM
4,[N-]=[N+]=N[C@H]1C[C@@H](CO)O[C@H]1n1cnc2c(N)ncnc21,> 100 µM

# System: HOP-62 NSCLC
# Assay: DTP human tumour cell line panel, 48 h
row,Compound,TGI
1,CC12CP(=O)(c3ccccc3)CC1C2(Cl)Cl (stereo not drawn),> 100 µM
2,CCN1CCC(O)(c2ccc(OC)cc2)C(C(=O)c2ccc(OC)cc2)C1 (stereo not drawn),> 100 µM
3,CC1CN(C(=O)CN2CCC(CCCCN(C)C)CC2)c2ccccc2NC1=O (stereo not drawn),> 100 µM
4,[N-]=[N+]=N[C@H]1C[C@@H](CO)O[C@H]1n1cnc2c(N)ncnc21,> 100 µM

# System: HOP-92 NSCLC
# Assay: DTP human tumour cell line panel, 48 h
row,Compound,TGI
1,CC1CN(C(=O)CN2CCC(CCCCN(C)C)CC2)c2ccccc2NC1=O (stereo not drawn),> 100 µM
2,C1=CC(N(c2ccccc2)C2C=CCCC2)CCC1 (stereo not drawn),> 100 µM
3,[N-]=[N+]=N[C@H]1C[C@@H](CO)O[C@H]1n1cnc2c(N)ncnc21,> 100 µM

# System: HT29 colon
# Assay: DTP human tumour cell line panel, 48 h
row,Compound,TGI
1,CC12CP(=O)(c3ccccc3)CC1C2(Cl)Cl (stereo not drawn),> 100 µM
2,CCN1CCC(O)(c2ccc(OC)cc2)C(C(=O)c2ccc(OC)cc2)C1 (stereo not drawn),48.1 µM
3,CC1CN(C(=O)CN2CCC(CCCCN(C)C)CC2)c2ccccc2NC1=O (stereo not drawn),> 100 µM
4,C1=CC(N(c2ccccc2)C2C=CCCC2)CCC1 (stereo not drawn),> 100 µM
5,[N-]=[N+]=N[C@H]1C[C@@H](CO)O[C@H]1n1cnc2c(N)ncnc21,> 100 µM

# System: IGROV1 ovarian
# Assay: DTP human tumour cell line panel, 48 h
row,Compound,TGI
1,CC12CP(=O)(c3ccccc3)CC1C2(Cl)Cl (stereo not drawn),> 100 µM
2,CCN1CCC(O)(c2ccc(OC)cc2)C(C(=O)c2ccc(OC)cc2)C1 (stereo not drawn),> 100 µM
3,CC1CN(C(=O)CN2CCC(CCCCN(C)C)CC2)c2ccccc2NC1=O (stereo not drawn),> 100 µM
4,C1=CC(N(c2ccccc2)C2C=CCCC2)CCC1 (stereo not drawn),> 100 µM

# System: K-562 leukemia
# Assay: DTP human tumour cell line panel, 48 h
row,Compound,TGI
1,CC12CP(=O)(c3ccccc3)CC1C2(Cl)Cl (stereo not drawn),> 100 µM
2,CCN1CCC(O)(c2ccc(OC)cc2)C(C(=O)c2ccc(OC)cc2)C1 (stereo not drawn),> 100 µM
3,CC1CN(C(=O)CN2CCC(CCCCN(C)C)CC2)c2ccccc2NC1=O (stereo not drawn),> 100 µM
4,C1=CC(N(c2ccccc2)C2C=CCCC2)CCC1 (stereo not drawn),> 100 µM

# System: KM12 colon
# Assay: DTP human tumour cell line panel, 48 h
row,Compound,TGI
1,CC12CP(=O)(c3ccccc3)CC1C2(Cl)Cl (stereo not drawn),> 100 µM
2,CCN1CCC(O)(c2ccc(OC)cc2)C(C(=O)c2ccc(OC)cc2)C1 (stereo not drawn),42.1 µM
3,[N-]=[N+]=N[C@H]1C[C@@H](CO)O[C@H]1n1cnc2c(N)ncnc21,> 100 µM

# System: KM20L2 colon
# Assay: DTP human tumour cell line panel, 48 h
row,Compound,TGI
1,CC12CP(=O)(c3ccccc3)CC1C2(Cl)Cl (stereo not drawn),> 100 µM
2,CCN1CCC(O)(c2ccc(OC)cc2)C(C(=O)c2ccc(OC)cc2)C1 (stereo not drawn),33.2 µM
3,CC1CN(C(=O)CN2CCC(CCCCN(C)C)CC2)c2ccccc2NC1=O (stereo not drawn),> 100 µM
4,C1=CC(N(c2ccccc2)C2C=CCCC2)CCC1 (stereo not drawn),> 100 µM
5,[N-]=[N+]=N[C@H]1C[C@@H](CO)O[C@H]1n1cnc2c(N)ncnc21,> 100 µM

# System: LOX IMVI melanoma
# Assay: DTP human tumour cell line panel, 48 h
row,Compound,TGI
1,CC12CP(=O)(c3ccccc3)CC1C2(Cl)Cl (stereo not drawn),> 100 µM
2,CCN1CCC(O)(c2ccc(OC)cc2)C(C(=O)c2ccc(OC)cc2)C1 (stereo not drawn),45.1 µM
3,CC1CN(C(=O)CN2CCC(CCCCN(C)C)CC2)c2ccccc2NC1=O (stereo not drawn),> 100 µM
4,C1=CC(N(c2ccccc2)C2C=CCCC2)CCC1 (stereo not drawn),> 100 µM
5,[N-]=[N+]=N[C@H]1C[C@@H](CO)O[C@H]1n1cnc2c(N)ncnc21,> 100 µM

# System: LXFL 529 NSCLC
# Assay: DTP human tumour cell line panel, 48 h
row,Compound,TGI
1,CC12CP(=O)(c3ccccc3)CC1C2(Cl)Cl (stereo not drawn),> 100 µM
2,CCN1CCC(O)(c2ccc(OC)cc2)C(C(=O)c2ccc(OC)cc2)C1 (stereo not drawn),37.2 µM
3,CC1CN(C(=O)CN2CCC(CCCCN(C)C)CC2)c2ccccc2NC1=O (stereo not drawn),> 100 µM
4,C1=CC(N(c2ccccc2)C2C=CCCC2)CCC1 (stereo not drawn),> 100 µM
5,[N-]=[N+]=N[C@H]1C[C@@H](CO)O[C@H]1n1cnc2c(N)ncnc21,> 100 µM

# System: M14 melanoma
# Assay: DTP human tumour cell line panel, 48 h
row,Compound,TGI
1,CC12CP(=O)(c3ccccc3)CC1C2(Cl)Cl (stereo not drawn),> 100 µM
2,CCN1CCC(O)(c2ccc(OC)cc2)C(C(=O)c2ccc(OC)cc2)C1 (stereo not drawn),29.7 µM
3,CC1CN(C(=O)CN2CCC(CCCCN(C)C)CC2)c2ccccc2NC1=O (stereo not drawn),> 100 µM
4,C1=CC(N(c2ccccc2)C2C=CCCC2)CCC1 (stereo not drawn),> 100 µM
5,[N-]=[N+]=N[C@H]1C[C@@H](CO)O[C@H]1n1cnc2c(N)ncnc21,> 100 µM

# System: M19-MEL melanoma
# Assay: DTP human tumour cell line panel, 48 h
row,Compound,TGI
1,CC12CP(=O)(c3ccccc3)CC1C2(Cl)Cl (stereo not drawn),> 100 µM
2,CCN1CCC(O)(c2ccc(OC)cc2)C(C(=O)c2ccc(OC)cc2)C1 (stereo not drawn),34.9 µM
3,CC1CN(C(=O)CN2CCC(CCCCN(C)C)CC2)c2ccccc2NC1=O (stereo not drawn),> 100 µM
4,C1=CC(N(c2ccccc2)C2C=CCCC2)CCC1 (stereo not drawn),> 100 µM
5,[N-]=[N+]=N[C@H]1C[C@@H](CO)O[C@H]1n1cnc2c(N)ncnc21,> 100 µM

# System: MALME-3M melanoma
# Assay: DTP human tumour cell line panel, 48 h
row,Compound,TGI
1,CC1CN(C(=O)CN2CCC(CCCCN(C)C)CC2)c2ccccc2NC1=O (stereo not drawn),> 100 µM
